In patent US11541107B2, “Peptides and T cells for use in immunotherapeutic treatment of various cancers” (Immatics Biotechnologies GmbH, priority 2015, dated 2023):

Tested on: CD8+ T cells
Assay: In vitro T-cell priming assay (aAPCs loaded with peptide/MHC and anti-CD28, pMHC multimer readout; HLA-A*02 and HLA-A*24)
Type: cell-based, human
Conditions: in vitro immunogenicity of HLA class I peptides; peptide-specific T cells by pMHC multimer staining
Source text: In order to obtain information regarding the immunogenicity of the TUMAPs of the present invention, the inventors performed investigations using an in vitro T-cell priming assay based on repeated stimulations of CD8+ T cells with artificial antigen presenting cells (aAPCs) loaded with peptide/MHC complexes and anti-CD28 antibody.
In order to perform in vitro stimulations by artificial antigen presenting cells loaded with peptide-MHC complex (pMHC) and anti-CD28 antibody, the inventors first isolated CD8+ T cells from fresh HLA-A*02 leukapheresis products via positive selection using CD8 microbeads (Miltenyi Biotec, Bergisch-Gladbach, Germany) of healthy donors obtained from the University clinics Mannheim, Germany, after informed consent.
PBMCs and isolated CD8+ lymphocytes were incubated in T-cell medium (TCM) until use consisting of RPMI-Glutamax (Invitrogen, Karlsruhe, Germany) supplemented with 10% heat inactivated human AB serum (PAN-Biotech, Aidenbach, Germany), 100 U/ml Penicillin/100 μg/ml Streptomycin (Cambrex, Cologne, Germany), 1 mM sodium pyruvate (CC Pro, Oberdorla, Germany), 20 μg/ml Gentamycin (Cambrex). 2.5 ng/ml IL-7 (PromoCell, Heidelberg, Germany) and 10 U/ml IL-2 (Novartis Pharma, Nürnberg, Germany) were also added to the TCM at this step.
Generation of pMHC/anti-CD28 coated beads, T-cell stimulations and readout was performed in a highly defined in vitro system using four different pMHC molecules per stimulation condition and 8 different pMHC molecules per readout condition.
The purified co-stimulatory mouse IgG2a anti human CD28 Ab 9.3 (Jung et al., 1987) was chemically biotinylated using Sulfo-N-hydroxysuccinimidobiotin as recommended by the manufacturer (Perbio, Bonn, Germany). Beads used were 5.6 μm diameter streptavidin coated polystyrene particles (Bangs Laboratories, Illinois, USA).
pMHC used for positive and negative control stimulations were A*0201/MLA-001 (peptide […] (SEQ ID NO. 418) from modified Melan-A/MART-1) and A*0201/DDX5-001 ([…] from DDX5, SEQ ID NO. 419), respectively.
800.000 beads/200 μl were coated in 96-well plates in the presence of 4×12.5 ng different biotin-pMHC, washed and 600 ng biotin anti-CD28 were added subsequently in a volume of 200 μl. Stimulations were initiated in 96-well plates by co-incubating 1×10^6 CD8+ T cells with 2×10^5 washed coated beads in 200 μl TCM supplemented with 5 ng/ml IL-12 (PromoCell) for 3 days at 37° C. Half of the medium was then exchanged by fresh TCM supplemented with 80 U/ml IL-2 and incubating was continued for 4 days at 37° C. This stimulation cycle was performed for a total of three times. For the pMHC multimer readout using 8 different pMHC molecules per condition, a two-dimensional combinatorial coding approach was used as previously described (Andersen et al., 2012) with minor modifications encompassing coupling to 5 different fluorochromes. Finally, multimeric analyses were performed by staining the cells with Live/dead near IR dye (Invitrogen, Karlsruhe, Germany), CD8-FITC antibody clone SK1 (BD, Heidelberg, Germany) and fluorescent pMHC multimers. For analysis, a BD LSRII SORP cytometer equipped with appropriate lasers and filters was used. Peptide specific cells were calculated as percentage of total CD8+ cells. Evaluation of multimeric analysis was done using the FlowJo software (Tree Star, Oregon, USA). In vitro priming of specific multimer+CD8+ lymphocytes was detected by comparing to negative control stimulations.
Exemplary flow cytometry results after TUMAP-specific multimer staining for 2 peptides of the invention are shown in FIGS. 3A-3B together with corresponding negative controls. Results for 5 peptides from the invention are summarized in Table12A. Exemplary flow cytometry results after TUMAP-specific multimer staining for 7 peptides of the invention are shown in FIGS. 4A-4C and FIGS. 5A-5D together with corresponding negative controls.

Substance | Wells positive [%]
96 (YYTQYSQTI; listed as Homo sapiens) [compound 96] | + (<20% = +)
98 (VFPRLHNVLF; listed as Homo sapiens) [compound 98] | + (<20% = +)
103 (NYIPVKNGKQF; listed as Homo sapiens) [compound 103] | + (<20% = +)
104 (SYLTWHQQI; listed as Homo sapiens) [compound 104] | + (<20% = +)
105 (IYNETITDLL; listed as Homo sapiens) [compound 105] | + (<20% = +)
106 (IYNETVRDLL; listed as Homo sapiens) [compound 106] | + (<20% = +)
111 (VYVQILQKL; listed as Homo sapiens) [compound 111] | + (<20% = +)
115 (RYLNKSFVL; listed as Homo sapiens) [compound 115] | + (<20% = +)
132 (RYPALFPVL; listed as Homo sapiens) [compound 132] | + (<20% = +)
137 (EYLHNCSYF; listed as Homo sapiens) [compound 137] | + (<20% = +)
142 (VYVDDIYVI; listed as Homo sapiens) [compound 142] | ++++ (>=70% = ++++)
156 (YYMELTKLLL; listed as Homo sapiens) [compound 156] | + (<20% = +)
157 (DYIPASGFALF; listed as Homo sapiens) [compound 157] | + (<20% = +)
158 (IYEETRGVLKVF; listed as Homo sapiens) [compound 158] | + (<20% = +)
160 (RYGDGGSSF; listed as Homo sapiens) [compound 160] | + (<20% = +)
161 (KYPDIVQQF; listed as Homo sapiens) [compound 161] | + (<20% = +)
162 (KYTSYILAF; listed as Homo sapiens) [compound 162] | + (<20% = +)
163 (RYLTISNLQF; listed as Homo sapiens) [compound 163] | + (<20% = +)
164 (HYVPATKVF; listed as Homo sapiens) [compound 164] | + (<20% = +)
166 (FYTLPFHLI; listed as Homo sapiens) [compound 166] | ++++ (>=70% = ++++)
167 (RYGFYYVEF; listed as Homo sapiens) [compound 167] | ++++ (>=70% = ++++)

Same assay, conditions: in vitro immunogenicity of HLA class I peptides; share of positive wells after stimulation of CD8+ T cells of healthy donors

Substance | wells
407 (VYGIRLEHF; listed as Homo sapiens) [compound 407] | +++ (50%-69%= +++)

Target: HLA-A*02 (Homo sapiens, UniProt P04439, D140Y/D185E/D98H/E176V/E277Q/G131W/G231S/I119V/I121R/I166T/I218V/L300P/N151K/N90K/P208A/P217A/Q86G/Q94H/R138H/R169H)
Assay: MHC binding assay, UV-ligand exchange with beta2m ELISA, HLA-A*02
Conditions: binding to HLA-A*02 ranged by peptide exchange yield (UV-ligand exchange, beta2m ELISA)
Source text: Candidate peptides for T cell based therapies according to the present invention were further tested for their MHC binding capacity (affinity). The individual peptide-MHC complexes were produced by UV-ligand exchange, where a UV-sensitive peptide is cleaved upon UV-irradiation, and exchanged with the peptide of interest as analyzed. Only peptide candidates that can effectively bind and stabilize the peptide-receptive MHC molecules prevent dissociation of the MHC complexes. To determine the yield of the exchange reaction, an ELISA was performed based on the detection of the light chain (ß2 m) of stabilized MHC complexes. The assay was performed as generally described in Rodenko et al. (Rodenko et al., 2006).
96 well MAXISorp plates (NUNC) were coated over night with 2 ug/ml streptavidin in PBS at room temperature, washed 4× and blocked for 1 h at 37° C. in 2% BSA containing blocking buffer. […] Peptide-MHC monomers of the UV-exchange reaction were diluted 100 fold in blocking buffer. Samples were incubated for 1 h at 37° C., washed four times, incubated with 2 ug/ml HRP conjugated anti-β2 m for 1h at 37° C., washed again and detected with TMB solution that is stopped with […]. Absorption was measured at 450 nm. Candidate peptides that show a high exchange yield (preferably higher than 50%, most preferred higher than 75%) are generally preferred for a generation and production of antibodies or fragments thereof, and/or T cell receptors or fragments thereof, as they show sufficient avidity to the MHC molecules and prevent dissociation of the MHC complexes.

Peptide exchange | Substance
++ (20%-49% = ++) | 338 (LLYDGKLSSA; listed as Homo sapiens) [compound 338]
++ (20%-49% = ++) | 339 (VLGPGPPPL; listed as Homo sapiens) [compound 339]
++ (20%-49% = ++) | 340 (SVAKTILKR; listed as Homo sapiens) [compound 340]

Tested on: HLA-A*24
Assay: MHC binding assay, UV-ligand exchange with beta2m ELISA, HLA-A*24
Set-up: species or system human
Conditions: binding to HLA-A*24 ranged by peptide exchange yield (UV-ligand exchange, beta2m ELISA)
In short: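 Peptide–MHC complexes made by UV-ligand exchange of a UV-cleavable peptide. Exchange yield measured by ELISA: monomers diluted 100-fold on streptavidin-coated plates, 1 h at 37°C, detected with HRP anti-β2m (2 ug/ml) and TMB, absorbance at 450 nm.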

Peptide exchange | Substance
+++ (50%-75% = +++) | 142 (VYVDDIYVI; listed as Homo sapiens) [compound 142]
++++ (>=75% = ++++) | 156 (YYMELTKLLL; listed as Homo sapiens) [compound 156]
+++ (50%-75% = +++) | 157 (DYIPASGFALF; listed as Homo sapiens) [compound 157]
+++ (50%-75% = +++) | 158 (IYEETRGVLKVF; listed as Homo sapiens) [compound 158]
+++ (50%-75% = +++) | 160 (RYGDGGSSF; listed as Homo sapiens) [compound 160]
+++ (50%-75% = +++) | 161 (KYPDIVQQF; listed as Homo sapiens) [compound 161]
++ (20%-49% = ++) | 162 (KYTSYILAF; listed as Homo sapiens) [compound 162]
++++ (>=75% = ++++) | 163 (RYLTISNLQF; listed as Homo sapiens) [compound 163]
+++ (50%-75% = +++) | 164 (HYVPATKVF; listed as Homo sapiens) [compound 164]
++++ (>=75% = ++++) | 166 (FYTLPFHLI; listed as Homo sapiens) [compound 166]
+++ (50%-75% = +++) | 167 (RYGFYYVEF; listed as Homo sapiens) [compound 167]

Further lines, the substance ahead of its results:

Substance | Peptide exchange
96 (YYTQYSQTI; listed as Homo sapiens) [compound 96] | ++++ (>=75% = ++++)
98 (VFPRLHNVLF; listed as Homo sapiens) [compound 98] | +++ (50%-75% = +++)
103 (NYIPVKNGKQF; listed as Homo sapiens) [compound 103] | +++ (50%-75% = +++)
104 (SYLTWHQQI; listed as Homo sapiens) [compound 104] | ++++ (>=75% = ++++)
105 (IYNETITDLL; listed as Homo sapiens) [compound 105] | +++ (50%-75% = +++)
106 (IYNETVRDLL; listed as Homo sapiens) [compound 106] | +++ (50%-75% = +++)
111 (VYVQILQKL; listed as Homo sapiens) [compound 111] | +++ (50%-75% = +++)
115 (RYLNKSFVL; listed as Homo sapiens) [compound 115] | +++ (50%-75% = +++)
132 (RYPALFPVL; listed as Homo sapiens) [compound 132] | ++++ (>=75% = ++++)
137 (EYLHNCSYF; listed as Homo sapiens) [compound 137] | ++++ (>=75% = ++++)
